Legend:
Assay in all cases: relative viability (nuclei count vs DMSO), 5 days (fraction); higher = more cells survive
[1] = tested on: LU99A
In short: (§1)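 Five library-drug doses in √10 steps were combined with a fixed anchor-drug dose, or a single drug was given alone, by pin tool to lung cancer cell lines in 1536-well plates the day after seeding. Nuclei were stained and counted after 5 days. Relative viability is the nuclei count in treated wells over that in vehicle wells, taken as the median of duplicate plates.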

[2] = tested on: NCI-H2023
In short: as §1

[3] = tested on: NCI-H1651
In short: as §1

[4] = tested on: NCI-H1355
In short: as §1

[5] = tested on: HARA
In short: as §1

[6] = tested on: HCC-15
In short: as §1

[7] = tested on: NCI-H2126
In short: as §1

[8] = tested on: UMC-11
In short: as §1

[9] = tested on: NCI-H1993
In short: as §1

[10] = tested on: PC-14
In short: as §1

[11] = tested on: NCI-H650
In short: as §1

[12] = tested on: NCI-H1915
In short: as §1

[13] = tested on: LC-2-ad
In short: as §1

[14] = tested on: EPLC-272H
In short: as §1

[15] = tested on: HOP-62
In short: as §1

[16] = tested on: NCI-H2085
In short: as §1

[17] = tested on: HCC-44
In short: as §1

[18] = tested on: NCI-H838
In short: as §1

[19] = tested on: SW 1573
In short: as §1

[20] = tested on: COR-L23
In short: as §1

[21] = tested on: NCI-H2347
In short: as §1

Cc1sc2c(c1C)C(c1ccc(Cl)cc1)=N[C@@H](CC(=O)OC(C)(C)C)c1nnc(C)n1-2 [JQ1] + CC(=O)Nc1cccc(-n2c(=O)n(C3CC3)c(=O)c3c(Nc4ccc(I)cc4F)n(C)c(=O)c(C)c32)c1 [Trametinib] (partner 0.02 µM)
relative viability ([1]; first compound 0.04 µM): 0.544
relative viability ([1]; first compound 0.4 µM): 0.335
relative viability ([1]; first compound 1.265 µM): 0.209
relative viability ([1]; first compound 4 µM): 0.194
relative viability ([2]; first compound 0.04 µM): 0.472
relative viability ([2]; first compound 0.1265 µM): 0.394
relative viability ([2]; first compound 0.4 µM): 0.248
relative viability ([2]; first compound 1.265 µM): 0.162
relative viability ([2]; first compound 4 µM): 0.137
relative viability ([3]; first compound 0.04 µM): 0.782
relative viability ([3]; first compound 0.1265 µM): 0.742
relative viability ([3]; first compound 0.4 µM): 0.603
relative viability ([3]; first compound 1.265 µM): 0.496
relative viability ([3]; first compound 4 µM): 0.437
relative viability ([4]; first compound 0.04 µM): 0.432
relative viability ([4]; first compound 0.1265 µM): 0.429
relative viability ([4]; first compound 0.4 µM): 0.34
relative viability ([4]; first compound 1.265 µM): 0.277
relative viability ([4]; first compound 4 µM): 0.255
relative viability ([5]; first compound 0.04 µM): 0.72
relative viability ([5]; first compound 0.1265 µM): 0.411
relative viability ([5]; first compound 0.4 µM): 0.174
relative viability ([5]; first compound 1.265 µM): 0.184
relative viability ([5]; first compound 4 µM): 0.304
relative viability ([6]; first compound 0.04 µM): 0.376
relative viability ([6]; first compound 0.4 µM): 0.338
relative viability ([6]; first compound 1.265 µM): 0.31
relative viability ([6]; first compound 4 µM): 0.28
relative viability ([7]; first compound 0.04 µM): 0.521
relative viability ([7]; first compound 0.1265 µM): 0.549
relative viability ([7]; first compound 0.4 µM): 0.486
relative viability ([7]; first compound 1.265 µM): 0.368
relative viability ([7]; first compound 4 µM): 0.416
relative viability ([8]; first compound 0.04 µM): 0.588
relative viability ([8]; first compound 0.1265 µM): 0.543
relative viability ([8]; first compound 0.4 µM): 0.377
relative viability ([8]; first compound 1.265 µM): 0.204
relative viability ([8]; first compound 4 µM): 0.194
relative viability ([9]; first compound 0.04 µM): 0.465
relative viability ([9]; first compound 0.1265 µM): 0.461
relative viability ([9]; first compound 0.4 µM): 0.541
relative viability ([9]; first compound 1.265 µM): 0.542
relative viability ([9]; first compound 4 µM): 0.57
relative viability ([10]; first compound 0.04 µM): 0.862
relative viability ([10]; first compound 0.1265 µM): 0.174
relative viability ([10]; first compound 0.4 µM): 0.515
relative viability ([10]; first compound 1.265 µM): 0.26
relative viability ([10]; first compound 4 µM): 0.182
relative viability ([11]; first compound 0.04 µM): 0.852
relative viability ([11]; first compound 0.1265 µM): 0.812
relative viability ([11]; first compound 0.4 µM): 0.779
relative viability ([11]; first compound 1.265 µM): 0.371
relative viability ([11]; first compound 4 µM): 0.275
relative viability ([12]; first compound 0.04 µM): 0.281
relative viability ([12]; first compound 0.4 µM): 0.317
relative viability ([12]; first compound 1.265 µM): 0.237
relative viability ([12]; first compound 4 µM): 0.2
relative viability ([13]; first compound 0.04 µM): 0.866
relative viability ([13]; first compound 0.1265 µM): 0.918
relative viability ([13]; first compound 0.4 µM): 0.708
relative viability ([13]; first compound 1.265 µM): 0.479
relative viability ([13]; first compound 4 µM): 0.303
relative viability ([14]; first compound 0.04 µM): 0.278
relative viability ([14]; first compound 0.1265 µM): 0.252
relative viability ([14]; first compound 0.4 µM): 0.273
relative viability ([14]; first compound 1.265 µM): 0.254
relative viability ([14]; first compound 4 µM): 0.215
relative viability ([15]; first compound 0.04 µM): 0.307
relative viability ([15]; first compound 0.1265 µM): 0.262
relative viability ([15]; first compound 0.4 µM): 0.156
relative viability ([15]; first compound 1.265 µM): 0.119
relative viability ([15]; first compound 4 µM): 0.106
relative viability ([16]; first compound 0.04 µM): 0.376
relative viability ([16]; first compound 0.1265 µM): 0.551
relative viability ([16]; first compound 0.4 µM): 0.407
relative viability ([16]; first compound 1.265 µM): 0.248
relative viability ([16]; first compound 4 µM): 0.239
relative viability ([17]; first compound 0.04 µM): 1.02
relative viability ([17]; first compound 0.1265 µM): 1.09
relative viability ([17]; first compound 0.4 µM): 0.766
relative viability ([17]; first compound 1.265 µM): 0.649
relative viability ([17]; first compound 4 µM): 0.493
relative viability ([18]; first compound 0.04 µM): 0.521
relative viability ([18]; first compound 0.1265 µM): 0.267
relative viability ([18]; first compound 0.4 µM): 0.375
relative viability ([18]; first compound 1.265 µM): 0.293
relative viability ([18]; first compound 4 µM): 0.202
relative viability ([19]; first compound 0.04 µM): 0.422
relative viability ([19]; first compound 0.1265 µM): 0.357
relative viability ([19]; first compound 0.4 µM): 0.277
relative viability ([19]; first compound 1.265 µM): 0.189
relative viability ([19]; first compound 4 µM): 0.187
relative viability ([20]; first compound 0.04 µM): 0.562
relative viability ([20]; first compound 0.1265 µM): 0.497
relative viability ([20]; first compound 0.4 µM): 0.55
relative viability ([20]; first compound 1.265 µM): 0.342
relative viability ([20]; first compound 4 µM): 0.29
relative viability ([21]; first compound 0.04 µM): 0.275
relative viability ([21]; first compound 0.1265 µM): 0.294
relative viability ([21]; first compound 0.4 µM): 0.276
relative viability ([21]; first compound 1.265 µM): 0.24
relative viability ([21]; first compound 4 µM): 0.258

From the supplement of paper PMC10307832
